Experimental data as given in patent US11753446B2, “Beta-hairpin peptidomimetics” (POLYPHOR AG, priority 2014, dated 2023).
Where two headings read alike, the source gives them in different places. Where a SMILES comes first, the peptide text is derived from it. Bridges are numbered along the chain shown (N, C = ends). [ ]: non-standard residue; d: D form. Tle = CC(C)(C)[C@H](N)C(=O)O; dDab = NCC[C@@H](N)C(=O)O; Orn = NCCC[C@H](N)C(=O)O; Dab = NCC[C@H](N)C(=O)O

How the values were obtained:
[1] = system: Klebsiella pneumoniae ATCC 13883; format: cell-based
Method: (§1) Stock solutions were kept at +4° C., light protected.
(§2) The selective antimicrobial activities of the peptides were determined in 96-well plates (Greiner, polystyrene) by the standard NCCLS broth microdilution method (National Committee for Clinical Laboratory Standards 1993. Methods for dilution antimicrobial susceptibility tests for bacteria that grow aerobically, 3rd ed. Approved standard M7-A6; National Committee for Clinical laboratory standards, Wayne, Pa.) with slight modifications. Inocula of the microorganisms were diluted into Mueller-Hinton II (MH, cation adjusted) broth and compared with a 0.5 McFarland standard to give appr. 10^6 colony forming units (CFU)/mL. Aliquots (90 μl) of inoculate were added to 10 μl of MH broth+P-80 (Polysorbate 80, 0.002% final concentration) containing the peptide in serial two-fold dilutions. The following microorganisms were used to determine antibiotic selectivity of the peptides: Escherichia coli ATCC 25922, Klebsiella pneumoniae ATCC 13883 and Acinetobacter baumannii DSM 30008.

[2] = system: Escherichia coli ATCC 25922; format: cell-based
Method: as §1, §2

[3] = system: Acinetobacter baumannii DSM 30008; format: cell-based
Method: as §1, §2

[4] = system: human red blood cells (hRBC); test: Hemolysis: hemolytic activity at 100 μg/mL, 1 h at 37° C.
Method: Lyophilized peptides were weighed on a Microbalance (Mettler MT5) and dissolved in sterile water to a final concentration of 1 mg/mL. Stock solutions were kept at +4° C., light protected.
The peptides were tested for their hemolytic activity against human red blood cells (hRBC). Fresh hRBC were washed three times with phosphate buffered saline (PBS) and centrifuged for 5 min at 3000×g. Compounds (100 μg/mL) were incubated with 20% hRBC (v/v) for 1 h at 37° C. and shaking at 300 rpm. The final erythrocyte concentration was approximately 0.9×10^9 cells/mL. A value of 0% and 100% cell lyses, respectively, was determined by incubation of hRBC in the presence of PBS containing 0.001% acetic acid and 2.5% Triton X-100 in H2O, respectively. The samples were centrifuged, the supernatants were 8-fold diluted in PBS buffer and the optical densities (OD) were measured at 540 nm.
Percent hemolysis was calculated as follows: (OD540peptide/OD540H2O)×100%.

[5] = Mueller-Hinton II broth, 18-20 hours at 35° C.

Structure (SMILES): CC(C)C[C@@H]1NC(=O)[C@H](CCCNC(=N)N)NC(=O)[C@@H](CCN)NC(=O)[C@H]([C@@H](C)O)NC(=O)[C@@H]2CCNC(=O)C[C@H](NC1=O)C(=O)N[C@@H](Cc1ccc(O)cc1)C(=O)N[C@@H](CC(N)=O)C(=O)N[C@@H](CCCN)C(=O)N[C@H](CCN)C(=O)N[C@@H](CCN)C(=O)N[C@@H](Cc1c[nH]c3ccccc13)C(=O)N[C@@H](CO)C(=O)N[C@@H](C(C)(C)C)C(=O)N2 [Example 75, cyclo(-Leu-Asp-Tyr-Asn-Orn-^DDab-Dab-Trp-Ser-tBuGly-Dab-Thr-^DDab-Arg-)] (cyclo(LDYN[Orn][dDab][Dab]WS[Tle][Dab]T[dDab]R); lactam 2-11)
- Klebsiella pneumoniae ATCC 13883 MIC ([1]; ATCC 13883): 1 µg/mL
- Escherichia coli ATCC 25922 MIC ([2]; ATCC 25922): 1.5 µg/mL
- Acinetobacter baumannii DSM 30008 MIC ([3]; DSM 30008): 1.5 µg/mL
- Hemolysis at 100 μg/mL ([4]; red cells of human, 1 h, 100): 1%

Structure (SMILES): CC(C)C[C@@H]1NC(=O)[C@H](CCCNC(=N)N)NC(=O)[C@H]2CCCN2C(=O)[C@H](C(C)C)NC(=O)[C@@H]2CSSC[C@H](NC1=O)C(=O)N[C@@H](Cc1ccc(O)cc1)C(=O)N[C@@H](C)C(=O)N[C@@H](CCN)C(=O)N[C@@H](CCN)C(=O)N[C@@H](CCN)C(=O)N[C@@H](Cc1c[nH]c3ccccc13)C(=O)N[C@@H](C)C(=O)N[C@@H](C(C)C)C(=O)N2 [Example 1, cyclo(-Leu-Cys-Tyr-Ala-Dab-Dab-Dab-Trp-Ala-Val-Cys-Val-^DPro-Arg-)] (HELM PEPTIDE1{A.[Dab].[Dab].[Dab].W.A.V.C.V.[dP].R.L.C.Y}$PEPTIDE1,PEPTIDE1,8:R3-13:R3|PEPTIDE1,PEPTIDE1,1:R1-14:R2$$$V2.0)
- Klebsiella pneumoniae ATCC 13883 MIC [1, 5]: 1 µg/mL
- Escherichia coli ATCC 25922 MIC [2, 5]: 2 µg/mL
- Acinetobacter baumannii DSM 30008 MIC [3, 5]: 0.75 µg/mL
- Hemolysis at 100 μg/mL ([4]; 100 μg/mL, 20% hRBC, 1 h at 37° C.): 5%

Structure (SMILES): CC(C)C[C@@H]1NC(=O)[C@H](CCCNC(=N)N)NC(=O)[C@@H](CCN)NC(=O)[C@H](C(C)C)NC(=O)[C@@H]2CSSC[C@H](NC1=O)C(=O)N[C@@H](Cc1ccc(O)cc1)C(=O)N[C@@H](CC(N)=O)C(=O)N[C@@H](CCCN)C(=O)N[C@H](CCN)C(=O)N[C@@H](CCN)C(=O)N[C@@H](Cc1c[nH]c3ccccc13)C(=O)N[C@@H](CO)C(=O)N[C@@H](Cc1ccc(O)cc1)C(=O)N2 [Example 10, cyclo(-Leu-Cys-Tyr-Asn-Orn-^DDab-Dab-Trp-Ser-Tyr-Cys-Val-^DDab-Arg-)] (HELM PEPTIDE1{C.V.[NCC[C@@H](N[*:1])C(=O)[*:2]].R.L.C.Y.N.[Orn].[NCC[C@@H](N[*:1])C(=O)[*:2]].[Dab].W.S.Y}$PEPTIDE1,PEPTIDE1,1:R3-6:R3|PEPTIDE1,PEPTIDE1,1:R1-14:R2$$$V2.0)
- Klebsiella pneumoniae ATCC 13883 MIC ([1]; ATCC 13883): 1 µg/mL
- Escherichia coli ATCC 25922 MIC ([2]; ATCC 25922): 0.5 µg/mL
- Acinetobacter baumannii DSM 30008 MIC ([3]; DSM 30008): 0.5 µg/mL
- Hemolysis at 100 μg/mL ([4]; red cells of human, 1 h, 100): 1%

Structure (SMILES): CC(C)C[C@@H]1NC(=O)[C@H](CCCNC(=N)N)NC(=O)[C@@H](C)NC(=O)[C@H](C(C)C)NC(=O)[C@@H]2CSSC[C@H](NC1=O)C(=O)N[C@@H](Cc1ccc(O)cc1)C(=O)N[C@@H](CCN)C(=O)N[C@@H](CCCN)C(=O)N[C@H](CCN)C(=O)N[C@@H](CCN)C(=O)N[C@@H](Cc1c[nH]c3ccccc13)C(=O)N[C@@H](CC(N)=O)C(=O)N[C@@H](Cc1ccc(O)cc1)C(=O)N2 [Example 73, cyclo(-Leu-Cys-Tyr-Dab-Orn-^DDab-Dab-Trp-Asn-Tyr-Cys-Val-^DAla-Arg-)] (HELM PEPTIDE1{C.V.[dA].R.L.C.Y.[Dab].[Orn].[NCC[C@@H](N[*:1])C(=O)[*:2]].[Dab].W.N.Y}$PEPTIDE1,PEPTIDE1,1:R3-6:R3|PEPTIDE1,PEPTIDE1,1:R1-14:R2$$$V2.0)
- Klebsiella pneumoniae ATCC 13883 MIC ([1]; ATCC 13883): 1 µg/mL
- Escherichia coli ATCC 25922 MIC ([2]; ATCC 25922): 0.75 µg/mL
- Acinetobacter baumannii DSM 30008 MIC ([3]; DSM 30008): 1.5 µg/mL
- Hemolysis at 100 μg/mL ([4]; red cells of human, 1 h, 100): 1%

Structure (SMILES): CC(C)C[C@@H]1NC(=O)[C@H](CCCNC(=N)N)NC(=O)[C@@H](CCN)NC(=O)[C@H](C(C)C)NC(=O)[C@@H]2CSSC[C@H](NC1=O)C(=O)N[C@@H](C(C)C)C(=O)N[C@@H]([C@@H](C)O)C(=O)N[C@@H](CCCN)C(=O)N[C@H](CCN)C(=O)N[C@@H](CCN)C(=O)N[C@@H](Cc1c[nH]c3ccccc13)C(=O)N[C@@H]([C@@H](C)O)C(=O)N[C@@H](Cc1ccc(O)cc1)C(=O)N2 [Example 25, cyclo(-Leu-Cys-Val-Thr-Orn-^DDab-Dab-Trp-Thr-Tyr-Cys-Val-^DDab-Arg-)] (HELM PEPTIDE1{C.V.T.[Orn].[NCC[C@@H](N[*:1])C(=O)[*:2]].[Dab].W.T.Y.C.V.[NCC[C@@H](N[*:1])C(=O)[*:2]].R.L}$PEPTIDE1,PEPTIDE1,1:R3-10:R3|PEPTIDE1,PEPTIDE1,1:R1-14:R2$$$V2.0)
- Klebsiella pneumoniae ATCC 13883 MIC ([1]; ATCC 13883): 1 µg/mL
- Escherichia coli ATCC 25922 MIC ([2]; ATCC 25922): 1 µg/mL
- Acinetobacter baumannii DSM 30008 MIC ([3]; DSM 30008): 0.25 µg/mL
- Hemolysis at 100 μg/mL ([4]; red cells of human, 1 h, 100): 3%

Structure (SMILES): CC(C)C[C@@H]1NC(=O)[C@H](CCCNC(=N)N)NC(=O)[C@@H](CCN)NC(=O)[C@H](Cc2ccc(O)cc2)NC(=O)[C@@H]2CSSC[C@H](NC1=O)C(=O)N[C@@H](Cc1ccc(O)cc1)C(=O)N[C@@H](CC(N)=O)C(=O)N[C@@H](CCCN)C(=O)N[C@H](CCN)C(=O)N[C@@H](CCN)C(=O)N[C@@H](Cc1c[nH]c3ccccc13)C(=O)N[C@@H](CO)C(=O)N[C@@H](Cc1ccc(O)cc1)C(=O)N2 [Example 11, cyclo(-Leu-Cys-Tyr-Asn-Orn-^DDab-Dab-Trp-Ser-Tyr-Cys-Tyr-^DDab-Arg-)] (HELM PEPTIDE1{C.Y.N.[Orn].[NCC[C@@H](N[*:1])C(=O)[*:2]].[Dab].W.S.Y.C.Y.[NCC[C@@H](N[*:1])C(=O)[*:2]].R.L}$PEPTIDE1,PEPTIDE1,1:R3-10:R3|PEPTIDE1,PEPTIDE1,1:R1-14:R2$$$V2.0)
- Klebsiella pneumoniae ATCC 13883 MIC ([1]; ATCC 13883): 0.25 µg/mL
- Escherichia coli ATCC 25922 MIC ([2]; ATCC 25922): 0.25 µg/mL
- Acinetobacter baumannii DSM 30008 MIC ([3]; DSM 30008): 0.5 µg/mL
- Hemolysis at 100 μg/mL ([4]; red cells of human, 1 h, 100): 4%

Structure (SMILES): CC(C)C[C@@H]1NC(=O)[C@H](CCN)NC(=O)[C@@H](CCN)NC(=O)[C@H](CO)NC(=O)[C@@H]2CSSC[C@H](NC1=O)C(=O)N[C@@H](Cc1ccc(O)cc1)C(=O)N[C@@H](CC(N)=O)C(=O)N[C@@H](CCCN)C(=O)N[C@H](CCN)C(=O)N[C@@H](CCN)C(=O)N[C@@H](Cc1c[nH]c3ccccc13)C(=O)N[C@@H](CO)C(=O)N[C@@H](Cc1ccc(O)cc1)C(=O)N2 [Example 8, cyclo(-Leu-Cys-Tyr-Asn-Orn-^DDab-Dab-Trp-Ser-Tyr-Cys-Ser-^DDab-Dab-)] (HELM PEPTIDE1{C.S.[NCC[C@@H](N[*:1])C(=O)[*:2]].[Dab].L.C.Y.N.[Orn].[NCC[C@@H](N[*:1])C(=O)[*:2]].[Dab].W.S.Y}$PEPTIDE1,PEPTIDE1,1:R3-6:R3|PEPTIDE1,PEPTIDE1,1:R1-14:R2$$$V2.0)
- Klebsiella pneumoniae ATCC 13883 MIC ([1]; ATCC 13883): 0.5 µg/mL
- Escherichia coli ATCC 25922 MIC ([2]; ATCC 25922): 1 µg/mL
- Acinetobacter baumannii DSM 30008 MIC ([3]; DSM 30008): 1.5 µg/mL
- Hemolysis at 100 μg/mL ([4]; red cells of human, 1 h, 100): 1%

Structure (SMILES): CC(C)C[C@@H]1NC(=O)[C@H](CCN)NC(=O)[C@@H](CCN)NC(=O)[C@H]([C@@H](C)O)NC(=O)[C@@H]2CCNC(=O)C[C@H](NC1=O)C(=O)N[C@@H](Cc1ccc(O)cc1)C(=O)N[C@@H](CC(N)=O)C(=O)N[C@@H](CCCN)C(=O)N[C@H](CCN)C(=O)N[C@@H](CCN)C(=O)N[C@@H](Cc1c[nH]c3ccccc13)C(=O)N[C@@H](CO)C(=O)N[C@@H](C(C)(C)C)C(=O)N2 [Example 76, cyclo(-Leu-Asp-Tyr-Asn-Orn-^DDab-Dab-Trp-Ser-tBuGly-Dab-Thr-^DDab-Dab-)] (cyclo(LDYN[Orn][dDab][Dab]WS[Tle][Dab]T[dDab][Dab]); lactam 2-11)
- Klebsiella pneumoniae ATCC 13883 MIC ([1]; ATCC 13883): 1 µg/mL
- Escherichia coli ATCC 25922 MIC ([2]; ATCC 25922): 1 µg/mL
- Acinetobacter baumannii DSM 30008 MIC ([3]; DSM 30008): 1.5 µg/mL
- Hemolysis at 100 μg/mL ([4]; red cells of human, 1 h, 100): 2%
